According to paper PMC11397024, “Strategic Fluorination to Achieve a Potent, Selective, Metabolically Stable, and Orally Bioavailable Inhibitor of CSNK2” (Molecules, 2024):

Key:
Test in all cases: NanoBRET K192
Type in all cases: cell-based
LCK = biological target: T1, LCK (Homo sapiens, UniProt P06239); conditions: HEK293
T1 construct: purchased Promega (NanoBRET Target Engagement K192 Kinase Selectivity System)
Procedure, shortened: (§1)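 HEK293 cells were transfected overnight with NanoLuc–kinase fusion vectors, then treated for 2 h at 37 °C with compound (added as 100 μM working solution) plus K10 tracer. BRET was read at 450/610 nm after substrate and extracellular inhibitor, and fractional occupancy was calculated against no-compound controls.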

IRAK3 = biological target: T2, IRAK3 (Homo sapiens, UniProt Q9Y616); conditions: HEK293
T2 construct: purchased Promega (NanoBRET Target Engagement K192 Kinase Selectivity System)
Procedure, shortened: as §1

STK35 = biological target: T3, STK35 (Homo sapiens, UniProt Q8TDR2); conditions: HEK293
T3 construct: purchased Promega (NanoBRET Target Engagement K192 Kinase Selectivity System)
Procedure, shortened: as §1

CLK4 = biological target: T4, CLK4 (Homo sapiens, UniProt Q9HAZ1)
T4 construct: expressed in transfected cells; host or cells: HEK293
Procedure, shortened: as §1

MYLK2 = biological target: T5, MYLK2 (Homo sapiens, UniProt Q9H1R3); conditions: HEK293
T5 construct: purchased Promega (NanoBRET Target Engagement K192 Kinase Selectivity System)
Procedure, shortened: as §1

CSNK1G2 = biological target: T6, CSNK1G2 (Homo sapiens, UniProt P78368); conditions: HEK293
T6 construct: purchased Promega (NanoBRET Target Engagement K192 Kinase Selectivity System)
Procedure, shortened: as §1

RPS6KA1 = biological target: T7, RPS6KA1 (Homo sapiens, UniProt Q15418); conditions: HEK293
T7 construct: purchased Promega (NanoBRET Target Engagement K192 Kinase Selectivity System)
Procedure, shortened: as §1

MKNK2 = biological target: T8, MKNK2 (Homo sapiens, UniProt Q9HBH9); conditions: HEK293
T8 construct: purchased Promega (NanoBRET Target Engagement K192 Kinase Selectivity System)
Procedure, shortened: as §1

PAK6 = biological target: T9, PAK6 (Homo sapiens, UniProt Q9NQU5); conditions: HEK293
T9 construct: purchased Promega (NanoBRET Target Engagement K192 Kinase Selectivity System)
Procedure, shortened: as §1

NTRK2 = biological target: T10, NTRK2 (Homo sapiens, UniProt Q16620); conditions: HEK293
T10 construct: purchased Promega (NanoBRET Target Engagement K192 Kinase Selectivity System)
Procedure, shortened: as §1

STK38 = biological target: T11, STK38 (Homo sapiens, UniProt Q15208); conditions: HEK293
T11 construct: purchased Promega (NanoBRET Target Engagement K192 Kinase Selectivity System)
Procedure, shortened: as §1

MAP3K21 = biological target: T12, MAP3K21 (Homo sapiens, UniProt Q5TCX8); conditions: HEK293
T12 construct: purchased Promega (NanoBRET Target Engagement K192 Kinase Selectivity System)
Procedure, shortened: as §1

EPHA4 = biological target: T13, EPHA4 (Homo sapiens, UniProt P54764); conditions: HEK293
T13 construct: purchased Promega (NanoBRET Target Engagement K192 Kinase Selectivity System)
Procedure, shortened: as §1

DYRK1A = biological target: T14, DYRK1A (Homo sapiens, UniProt Q13627)
T14 construct: purchased Promega (NanoBRET Target Engagement K192 Kinase Selectivity System)
Procedure, shortened: as §1

CAMK2D = biological target: T15, CAMK2D (Homo sapiens, UniProt Q13557); conditions: HEK293
T15 construct: purchased Promega (NanoBRET Target Engagement K192 Kinase Selectivity System)
Procedure, shortened: as §1

FGFR4 = biological target: T16, FGFR4 (Homo sapiens, UniProt P22455); conditions: HEK293
T16 construct: purchased Promega (NanoBRET Target Engagement K192 Kinase Selectivity System)
Procedure, shortened: as §1

MYLK4 = biological target: T17, MYLK4 (Homo sapiens, UniProt Q86YV6); conditions: HEK293
T17 construct: purchased Promega (NanoBRET Target Engagement K192 Kinase Selectivity System)
Procedure, shortened: as §1

AKT2 = biological target: T18, AKT2 (Homo sapiens, UniProt P31751); conditions: HEK293
T18 construct: purchased Promega (NanoBRET Target Engagement K192 Kinase Selectivity System)
Procedure, shortened: as §1

MAPK14 = biological target: T19, MAPK14 (Homo sapiens, UniProt Q16539); conditions: HEK293
T19 construct: purchased Promega (NanoBRET Target Engagement K192 Kinase Selectivity System)
Procedure, shortened: as §1

TLK1 = biological target: T20, TLK1 (Homo sapiens, UniProt Q9UKI8); conditions: HEK293
T20 construct: host or cells: HEK293
Procedure, shortened: as §1

PRKAA1 = biological target: T21, PRKAA1 (Homo sapiens, UniProt Q13131); conditions: HEK293
T21 construct: purchased Promega (NanoBRET Target Engagement K192 Kinase Selectivity System)
Procedure, shortened: as §1

SBK3 = biological target: T22, SBK3 (Homo sapiens, UniProt P0C264); conditions: HEK293
T22 construct: purchased Promega (NanoBRET Target Engagement K192 Kinase Selectivity System)
Procedure, shortened: as §1

PHKG1 = biological target: T23, PHKG1 (Homo sapiens, UniProt Q16816)
T23 construct: purchased Promega (NanoBRET Target Engagement K192 Kinase Selectivity System)
Procedure, shortened: as §1

PRKCE = biological target: T24, PRKCE (Homo sapiens, UniProt Q02156); conditions: HEK293
T24 construct: purchased Promega (NanoBRET Target Engagement K192 Kinase Selectivity System)
Procedure, shortened: as §1

RPS6KA2 = biological target: T25, RPS6KA2 (Homo sapiens, UniProt Q15349); conditions: HEK293
T25 construct: purchased Promega (NanoBRET Target Engagement K192 Kinase Selectivity System)
Procedure, shortened: as §1

AAK1 = biological target: T26, AAK1 (Homo sapiens, UniProt Q2M2I8); conditions: HEK293
T26 construct: purchased Promega (NanoBRET Target Engagement K192 Kinase Selectivity System)
Procedure, shortened: as §1

CDK18 + Y = biological target: T27, CDK18 + Y (Homo sapiens, UniProt Q07002); conditions: HEK293
T27 construct: purchased Promega (NanoBRET Target Engagement K192 Kinase Selectivity System)
Procedure, shortened: as §1

T23 sequence (Q16816 whole entry): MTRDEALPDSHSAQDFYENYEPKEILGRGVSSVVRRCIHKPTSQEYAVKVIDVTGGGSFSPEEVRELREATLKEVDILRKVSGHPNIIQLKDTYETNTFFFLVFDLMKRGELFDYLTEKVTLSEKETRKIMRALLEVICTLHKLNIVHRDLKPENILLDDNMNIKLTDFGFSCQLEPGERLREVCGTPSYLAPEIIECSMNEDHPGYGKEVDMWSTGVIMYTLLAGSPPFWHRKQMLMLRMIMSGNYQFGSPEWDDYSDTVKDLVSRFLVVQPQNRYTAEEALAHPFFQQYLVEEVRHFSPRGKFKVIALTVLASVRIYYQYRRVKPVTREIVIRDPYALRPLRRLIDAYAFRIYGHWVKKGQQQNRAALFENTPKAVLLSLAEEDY
T4 sequence (Q9HAZ1 whole entry): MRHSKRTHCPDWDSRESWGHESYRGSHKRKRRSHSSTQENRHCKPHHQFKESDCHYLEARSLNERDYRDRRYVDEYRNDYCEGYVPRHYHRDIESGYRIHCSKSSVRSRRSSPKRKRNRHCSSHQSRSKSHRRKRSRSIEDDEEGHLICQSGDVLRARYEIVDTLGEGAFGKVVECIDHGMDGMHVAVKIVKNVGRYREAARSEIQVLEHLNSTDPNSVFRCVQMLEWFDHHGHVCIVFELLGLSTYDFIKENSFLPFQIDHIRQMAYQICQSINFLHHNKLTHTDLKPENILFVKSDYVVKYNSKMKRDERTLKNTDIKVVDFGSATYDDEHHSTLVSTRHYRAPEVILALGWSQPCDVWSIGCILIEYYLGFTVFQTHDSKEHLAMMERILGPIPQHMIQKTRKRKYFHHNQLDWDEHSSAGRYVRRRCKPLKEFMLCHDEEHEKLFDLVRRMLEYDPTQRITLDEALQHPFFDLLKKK
T18 sequence (P31751 whole entry): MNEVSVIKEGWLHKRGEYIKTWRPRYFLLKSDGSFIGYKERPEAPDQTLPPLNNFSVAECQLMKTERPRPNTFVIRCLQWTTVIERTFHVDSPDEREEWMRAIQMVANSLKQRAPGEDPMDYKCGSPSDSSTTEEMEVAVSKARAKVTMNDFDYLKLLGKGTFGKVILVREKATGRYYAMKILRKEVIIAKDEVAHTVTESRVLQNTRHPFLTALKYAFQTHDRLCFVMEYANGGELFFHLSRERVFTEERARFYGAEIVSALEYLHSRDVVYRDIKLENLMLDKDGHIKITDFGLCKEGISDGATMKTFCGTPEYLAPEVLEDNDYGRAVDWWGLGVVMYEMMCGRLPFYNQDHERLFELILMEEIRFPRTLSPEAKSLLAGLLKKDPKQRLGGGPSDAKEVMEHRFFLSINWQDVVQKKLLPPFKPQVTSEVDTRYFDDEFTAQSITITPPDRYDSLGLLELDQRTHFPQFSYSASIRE
T12 sequence (Q5TCX8 whole entry): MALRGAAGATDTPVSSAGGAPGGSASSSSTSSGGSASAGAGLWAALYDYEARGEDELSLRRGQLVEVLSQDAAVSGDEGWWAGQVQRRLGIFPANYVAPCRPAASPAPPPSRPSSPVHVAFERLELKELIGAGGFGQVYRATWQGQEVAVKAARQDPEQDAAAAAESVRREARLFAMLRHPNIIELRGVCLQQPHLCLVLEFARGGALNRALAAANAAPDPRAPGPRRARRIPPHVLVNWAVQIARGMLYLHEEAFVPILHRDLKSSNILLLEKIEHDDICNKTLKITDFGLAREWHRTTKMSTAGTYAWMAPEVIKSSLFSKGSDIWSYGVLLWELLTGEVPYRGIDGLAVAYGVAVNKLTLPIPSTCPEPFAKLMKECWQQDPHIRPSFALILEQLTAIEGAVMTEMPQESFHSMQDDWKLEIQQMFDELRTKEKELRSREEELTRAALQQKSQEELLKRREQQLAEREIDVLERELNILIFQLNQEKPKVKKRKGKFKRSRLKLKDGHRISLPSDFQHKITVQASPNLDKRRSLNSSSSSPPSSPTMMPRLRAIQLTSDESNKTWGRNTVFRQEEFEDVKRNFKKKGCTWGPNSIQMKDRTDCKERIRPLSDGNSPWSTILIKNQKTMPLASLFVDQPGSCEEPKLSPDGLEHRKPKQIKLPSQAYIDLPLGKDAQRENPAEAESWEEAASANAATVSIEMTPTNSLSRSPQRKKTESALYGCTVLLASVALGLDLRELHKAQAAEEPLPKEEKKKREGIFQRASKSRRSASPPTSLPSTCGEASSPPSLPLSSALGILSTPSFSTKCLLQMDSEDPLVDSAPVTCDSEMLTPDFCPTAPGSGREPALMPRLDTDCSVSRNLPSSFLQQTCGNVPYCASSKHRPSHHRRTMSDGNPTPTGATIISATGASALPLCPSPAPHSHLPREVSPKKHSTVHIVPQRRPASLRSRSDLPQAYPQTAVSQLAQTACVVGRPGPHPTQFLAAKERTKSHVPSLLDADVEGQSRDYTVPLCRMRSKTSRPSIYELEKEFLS
T5 sequence (Q9H1R3 whole entry): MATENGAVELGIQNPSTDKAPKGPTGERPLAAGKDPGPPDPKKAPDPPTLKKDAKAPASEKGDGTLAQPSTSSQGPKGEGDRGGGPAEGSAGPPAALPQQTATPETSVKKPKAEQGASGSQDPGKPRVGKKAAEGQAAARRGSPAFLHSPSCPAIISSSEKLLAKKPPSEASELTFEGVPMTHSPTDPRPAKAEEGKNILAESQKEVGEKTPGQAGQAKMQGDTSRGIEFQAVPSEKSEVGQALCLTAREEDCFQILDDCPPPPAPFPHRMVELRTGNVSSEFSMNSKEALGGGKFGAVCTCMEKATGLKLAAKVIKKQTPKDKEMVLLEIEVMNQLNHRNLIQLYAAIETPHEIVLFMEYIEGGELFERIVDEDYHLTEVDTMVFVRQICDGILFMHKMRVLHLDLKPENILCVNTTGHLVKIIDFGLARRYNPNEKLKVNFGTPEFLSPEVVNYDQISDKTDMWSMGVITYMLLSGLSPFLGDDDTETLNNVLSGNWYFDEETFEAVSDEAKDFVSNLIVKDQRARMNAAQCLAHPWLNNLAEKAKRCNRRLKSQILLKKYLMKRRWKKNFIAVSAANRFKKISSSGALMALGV
T20 sequence (Q9UKI8 whole entry): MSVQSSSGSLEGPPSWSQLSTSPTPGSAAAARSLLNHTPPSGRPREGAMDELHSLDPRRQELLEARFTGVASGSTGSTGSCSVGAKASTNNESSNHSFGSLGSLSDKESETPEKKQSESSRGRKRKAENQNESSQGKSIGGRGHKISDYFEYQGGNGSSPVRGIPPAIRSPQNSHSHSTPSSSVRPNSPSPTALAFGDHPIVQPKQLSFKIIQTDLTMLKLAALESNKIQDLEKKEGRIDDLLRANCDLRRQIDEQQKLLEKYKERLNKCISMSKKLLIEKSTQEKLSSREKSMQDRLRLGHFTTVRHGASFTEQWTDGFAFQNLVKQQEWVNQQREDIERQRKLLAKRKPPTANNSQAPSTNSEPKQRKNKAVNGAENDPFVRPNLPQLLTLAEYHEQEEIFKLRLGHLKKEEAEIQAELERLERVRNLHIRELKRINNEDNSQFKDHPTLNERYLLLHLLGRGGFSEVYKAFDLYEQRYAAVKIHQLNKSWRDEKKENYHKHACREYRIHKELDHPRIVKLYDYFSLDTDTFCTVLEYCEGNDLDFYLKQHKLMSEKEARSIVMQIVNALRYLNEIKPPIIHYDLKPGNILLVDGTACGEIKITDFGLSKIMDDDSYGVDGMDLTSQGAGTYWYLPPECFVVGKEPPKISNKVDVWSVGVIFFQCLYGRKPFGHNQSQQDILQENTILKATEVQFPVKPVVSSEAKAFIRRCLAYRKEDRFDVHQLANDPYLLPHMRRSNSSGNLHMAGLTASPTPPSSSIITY
T21 sequence (Q13131 whole entry): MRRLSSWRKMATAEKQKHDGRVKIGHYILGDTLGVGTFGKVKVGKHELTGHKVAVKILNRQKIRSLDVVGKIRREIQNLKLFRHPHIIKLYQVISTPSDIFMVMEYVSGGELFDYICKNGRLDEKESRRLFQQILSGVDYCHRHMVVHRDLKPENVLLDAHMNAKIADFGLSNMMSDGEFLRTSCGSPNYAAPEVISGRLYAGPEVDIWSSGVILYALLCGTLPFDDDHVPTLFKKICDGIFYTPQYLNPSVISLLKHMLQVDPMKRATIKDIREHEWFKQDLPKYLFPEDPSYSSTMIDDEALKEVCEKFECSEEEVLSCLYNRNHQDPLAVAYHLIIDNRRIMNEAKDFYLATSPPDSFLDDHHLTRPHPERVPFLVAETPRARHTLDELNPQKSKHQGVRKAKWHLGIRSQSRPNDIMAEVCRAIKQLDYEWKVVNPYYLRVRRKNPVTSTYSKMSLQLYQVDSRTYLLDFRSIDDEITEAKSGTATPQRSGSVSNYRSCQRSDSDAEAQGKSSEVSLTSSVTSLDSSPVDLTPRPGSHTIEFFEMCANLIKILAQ
T6 sequence (P78368 whole entry): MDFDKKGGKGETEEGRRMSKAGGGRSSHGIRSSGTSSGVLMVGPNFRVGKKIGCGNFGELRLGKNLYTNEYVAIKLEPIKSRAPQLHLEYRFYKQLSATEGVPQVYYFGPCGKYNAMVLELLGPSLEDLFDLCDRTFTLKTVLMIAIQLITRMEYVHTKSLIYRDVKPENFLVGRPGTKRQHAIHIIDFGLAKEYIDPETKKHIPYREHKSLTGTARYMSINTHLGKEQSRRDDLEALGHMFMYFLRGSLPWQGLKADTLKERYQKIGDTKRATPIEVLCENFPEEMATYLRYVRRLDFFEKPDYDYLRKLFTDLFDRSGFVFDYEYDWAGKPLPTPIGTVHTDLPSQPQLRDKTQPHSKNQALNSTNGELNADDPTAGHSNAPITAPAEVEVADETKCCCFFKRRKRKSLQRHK

`CCC(=O)Nc1cc(Nc2cc(NC3CC3)n3ncc(C#N)c3n2)c(F)cc1N1CCC[C@H](NC)C1` [Compound 2, (S)-N-(5-((3-cyano-7-(cyclopropylamino)pyrazolo[1,5-a]pyrimidin-5-yl)amino)-4-fluoro-2-(3-(methylamino)piperidin-1-yl)phenyl)propionamide] showed a receptor occupancy at 10 µM (LCK) of 4.9%, a receptor occupancy at 10 µM (IRAK3) of 2.4% and a receptor occupancy at 10 µM (STK35) of 6.5%. For the same molecule, the “% occupancy at 10 μM” value (CLK4; CLK4, HEK293) was 74%, the receptor occupancy at 10 µM (CLK4; HEK293, CLK4) was 73.8% and the receptor occupancy at 10 µM (MYLK2) was 13.1%. The receptor occupancy at 10 µM (CSNK1G2) was 21.8%, the receptor occupancy at 10 µM (RPS6KA1) was 7.1% and the receptor occupancy at 10 µM (MKNK2) was 23.6%. The receptor occupancy at 10 µM (PAK6) was 15.3%, the receptor occupancy at 10 µM (NTRK2) was -0.1% and the receptor occupancy at 10 µM (STK38) was -0.8%. For the same molecule, the receptor occupancy at 10 µM (MAP3K21) was 4.8%, the receptor occupancy at 10 µM (EPHA4) was 7.8% and the “% occupancy at 10 μM” value (DYRK1A; DYRK1A, HEK293) was 71%. It also gave a receptor occupancy at 10 µM (DYRK1A; HEK293, DYRK1A) of 71.2%, a receptor occupancy at 10 µM (CAMK2D) of 18.4% and a receptor occupancy at 10 µM (FGFR4) of 8.2%. It also gave a receptor occupancy at 10 µM (MYLK4) of 38.5%, a receptor occupancy at 10 µM (AKT2) of 5.3% and a receptor occupancy at 10 µM (MAPK14) of 10.4%. The receptor occupancy at 10 µM (TLK1) was -23.1%, the receptor occupancy at 10 µM (PRKAA1) was 3.8% and the receptor occupancy at 10 µM (SBK3) was 15.9%. The receptor occupancy at 10 µM (PHKG1; HEK293, PHKG1) was 55.3%, the “% occupancy at 10 μM” value (PHKG1; PHKG1, HEK293) was 55% and the receptor occupancy at 10 µM (PRKCE) was 6.2%. For the same molecule, the receptor occupancy at 10 µM (RPS6KA2) was 2.4%, the receptor occupancy at 10 µM (AAK1) was 17.8% and the receptor occupancy at 10 µM (CDK18 + Y) was 17.5%.
